In PMC10590056, “Design and synthesis of cabotegravir derivatives bearing 1,2,3-triazole and evaluation of anti-liver cancer activity” (Frontiers in Pharmacology, 2023):
Where “and” joins values, the source holds several entries; their conditions need not be identical. Identical values can stand only once. Like-named read-outs stand apart in the source and are kept apart here.

What was measured:
Assay type in all cases: cell-based
KYSE-30 cells = experiment: MTT assay for cell proliferation, KYSE-30; parameters: key to Inhibitory rate: inhibition rate = 1 - mean A490 sample/mean A490 control (fraction)
Summary of the method: (§1)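 Proliferation read-out is MTT reduction (4 h) after 48 h treatment with KJ-5 or KJ-12 across 0, 1, 2, 4, 8, 16 and 32 μM. Cultures in 10% FBS DMEM, 37 °C, plated at 10^5 cells/mL; A490 of DMSO-dissolved formazan compared with untreated control.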

normal hepatic cells L02 = experiment: MTT inhibition rate in normal hepatic cells L02; conditions: for Average OD / Inhibitory rate / ODtreated/ODcontrol: L02 cells, 3 repeat experiments; for Average OD: average of 5 wells; for Inhibitory rate / ODtreated/ODcontrol: fraction
HepG2 cells [1] = experiment: Transwell migration assay (without Matrigel); conditions: HepG2, 24 h treatment, vs control
Description: HepG2 cells were treated with either KJ-5 or KJ-12 for 24 h. Then, the cells were suspended and seeded into the upper chamber of a 24-well Transwell plate (Corning Inc., United States) in serum-free medium. The cells were cultured for 24 h at 37°C; a medium containing 20% FBS as a chemoattractant was added to the lower chamber. HepG2 cells that had invaded through the membrane were fixed with 4% paraformaldehyde for 20 min and stained with 0.1% crystal violet. Five random fields were then imaged and quantified using an inverted fluorescence microscope (Axio Observer3, Germany). To assess invasion, transwell assays were performed in a similar manner, with the exception of coating the upper chamber of the Transwell with 100 μL of diluted Matrigel solution per well.

HeLa cells = experiment: MTT assay for cell proliferation, HeLa; parameters: key to Inhibitory rate: inhibition rate = 1 - mean A490 sample/mean A490 control (fraction)
Summary of the method: as §1

HepG2 cells [2] = experiment: MTT assay for cell proliferation and cytotoxicity, HepG2; parameters: key to Inhibitory rate: inhibition rate = 1 - mean A490 sample/mean A490 control (fraction)
Summary of the method: as §1

HepG2 cells [3] = experiment: DAPI staining for cell apoptosis (morphology); conditions: HepG2, 2, 4, 8 μM, 24 h
Description: Apoptotic morphological changes were determined by DAPI staining. HepG2 cells were seeded in a 48-well plate and treated with different concentrations of KJ-5 and KJ-12 (2, 4, and 8 μM) for 24 h. After 24 h, they were then washed with PBS and fixed with 4% paraformaldehyde for 20 min. Subsequently, they were then washed with PBS and treated with DAPI (10 μg/mL) at 37°C for 5 min. After washing with PBS, the cells were resuspended in PBS for the rest of the experiment. A fluorescence microscope was used to observe the apoptotic morphological changes.

[4] = HepG2, fraction, per experiment

COc1c2n(cc(C(=O)Nc3cccc(-c4cn(-c5cc(C(F)(F)F)cc(C(F)(F)F)c5)nn4)c3)c1=O)C[C@H]1OC[C@H](C)N1C2=O [KJ-5]
IC50 (KYSE-30 cells; Homo sapiens, KYSE-30, 48 h, MTT, read-out: IC50 KYSE-30): 8.51 ± 0.43 µM
IC50 (KYSE-30 cells; Homo sapiens, KYSE-30, KYSE-30, one of three experiments, unit inferred, read-out: IC50, single experiment, KYSE-30): 8.96 µM
inhibition at 16 µM (KYSE-30 cells; Homo sapiens, preliminary screening, KYSE-30, 16 μM, 48 h, mean±SD, unit inferred, read-out: Inhibition rate (16μM), 48 h, KYSE-30): 65.7 ± 0.91%
ODtreated/ODcontrol (KYSE-30 cells; KYSE-30, first of three experiments): 0.346
Inhibitory rate (KYSE-30 cells; KYSE-30, given as fraction, first of three experiments): 0.654
Inhibitory rate (KYSE-30 cells; KYSE-30, given as fraction, second of three experiments): 0.6669
Inhibitory rate (KYSE-30 cells; KYSE-30, given as fraction, third of three experiments): 0.6494
Inhibitory rate (KYSE-30 cells; KYSE-30, group 1 (concentration), fraction, single experiments): 0.1205 and 0.156 and 0.08655
ODtreated/ODcontrol (KYSE-30 cells; KYSE-30, group 1 (concentration), single experiments): 0.8795 and 0.844 and 0.9135
Inhibitory rate (KYSE-30 cells; KYSE-30, group 2 (concentration), fraction, single experiments): 0.2874 and 0.3093 and 0.2896
ODtreated/ODcontrol (KYSE-30 cells; KYSE-30, group 2 (concentration), single experiments): 0.7126 and 0.6907 and 0.7104
Inhibitory rate (KYSE-30 cells; KYSE-30, group 4 (concentration), fraction, single experiments): 0.3928 and 0.4106 and 0.3851
ODtreated/ODcontrol (KYSE-30 cells; KYSE-30, group 4 (concentration), single experiments): 0.6072 and 0.5895 and 0.6149
Inhibitory rate (KYSE-30 cells; KYSE-30, group 8 (concentration), fraction, single experiments): 0.503 and 0.5061 and 0.5028
ODtreated/ODcontrol (KYSE-30 cells; KYSE-30, group 8 (concentration), single experiments): 0.497 and 0.4939 and 0.4972
Inhibitory rate (KYSE-30 cells; KYSE-30, group 16 (concentration), fraction, single experiments): 0.6001 and 0.6158 and 0.6257
ODtreated/ODcontrol (KYSE-30 cells; KYSE-30, group 16 (concentration), single experiments): 0.3999 and 0.3842 and 0.3743
Inhibitory rate (KYSE-30 cells; KYSE-30, group 32 (concentration), fraction, single experiments): 0.6693 and 0.6807 and 0.6972
ODtreated/ODcontrol (KYSE-30 cells; KYSE-30, group 32 (concentration), single experiments): 0.3307 and 0.3193 and 0.3028
IC50 (KYSE-30 cells; KYSE-30, one of three experiments, unit inferred, read-out: IC50, single experiment, KYSE-30): 8.11 µM and 8.46 µM
ODtreated/ODcontrol (KYSE-30 cells; KYSE-30, second of three experiments): 0.3331
ODtreated/ODcontrol (KYSE-30 cells; KYSE-30, third of three experiments): 0.3506
inhibition at 1 µM (normal hepatic cells L02; Homo sapiens, L02, 48 h, L02, 1 μM, 48 h): 9.85 ± 1.6%
inhibition at 2 µM (normal hepatic cells L02; Homo sapiens, L02, 48 h, L02, 2 μM, 48 h): 14.9 ± 1.97%
inhibition at 4 µM (normal hepatic cells L02; Homo sapiens, L02, 48 h, L02, 4 μM, 48 h): < 20%
inhibition at 8 µM (normal hepatic cells L02; Homo sapiens, L02, 48 h, L02, 8 μM, 48 h): 27.1 ± 1.03%
inhibition at 16 µM (normal hepatic cells L02; Homo sapiens, L02, 48 h, L02, 16 μM, 48 h): 34.9 ± 2.22%
Average OD (normal hepatic cells L02; Group 1): 1.014 and 1.1374 and 1.3158
Inhibitory rate (normal hepatic cells L02; Group 1): 0.1149 and 0.09786 and 0.08274
ODtreated/ODcontrol (normal hepatic cells L02; Group 1): 0.8851 and 0.9021 and 0.9173
Average OD (normal hepatic cells L02; Group 2): 0.969 and 1.07 and 1.2316
Inhibitory rate (normal hepatic cells L02; Group 2): 0.1715 and 0.1379 and 0.1371
ODtreated/ODcontrol (normal hepatic cells L02; Group 2): 0.8285 and 0.8621 and 0.8629
Average OD (normal hepatic cells L02; Group 4): 0.922 and 1.0172 and 1.2162
Inhibitory rate (normal hepatic cells L02; Group 4): 0.1819 and 0.1797 (2×)
ODtreated/ODcontrol (normal hepatic cells L02; Group 4): 0.8181 and 0.8203 (2×)
Average OD (normal hepatic cells L02; Group 8): 0.8272 and 0.9114 and 1.0668
Inhibitory rate (normal hepatic cells L02; Group 8): 0.2824 and 0.2641 and 0.265
ODtreated/ODcontrol (normal hepatic cells L02; Group 8): 0.7176 and 0.7359 and 0.735
Average OD (normal hepatic cells L02; Group 16): 0.7216 and 0.9442
Inhibitory rate (normal hepatic cells L02; Group 16): 0.3649 and 0.358 and 0.3234
ODtreated/ODcontrol (normal hepatic cells L02; Group 16): 0.6351 and 0.642 and 0.6766
Average OD (normal hepatic cells L02; Group 32): 0.428 and 0.4844 and 0.436
Inhibitory rate (normal hepatic cells L02; Group 32): 0.7067 and 0.6192 and 0.6094
ODtreated/ODcontrol (normal hepatic cells L02; Group 32): 0.2933 and 0.3808 and 0.3906
Migration of HepG2 cells (transwell without Matrigel) (HepG2 cells [1]): significantly impaired
Inhibitory rate (HeLa cells; Hela, group 1 (concentration), fraction, single experiments): 0.2915 and 0.2462 and 0.2143
ODtreated/ODcontrol (HeLa cells; Hela, group 1 (concentration), single experiments): 0.7085 and 0.7538 and 0.7857
Inhibitory rate (HeLa cells; Hela, group 2 (concentration), fraction, single experiments): 0.3879 and 0.3569 and 0.2882
ODtreated/ODcontrol (HeLa cells; Hela, group 2 (concentration), single experiments): 0.6121 and 0.6431 and 0.7118
Inhibitory rate (HeLa cells; Hela, group 4 (concentration), fraction, single experiments): 0.418 and 0.3669 and 0.3302
ODtreated/ODcontrol (HeLa cells; Hela, group 4 (concentration), single experiments): 0.582 and 0.6331 and 0.6698
Inhibitory rate (HeLa cells; Hela, group 8 (concentration), fraction, single experiments): 0.5915 and 0.5007 and 0.5011
ODtreated/ODcontrol (HeLa cells; Hela, group 8 (concentration), single experiments): 0.4085 and 0.4993 and 0.4989
Inhibitory rate (HeLa cells; Hela, group 16 (concentration), fraction, single experiments): 0.834 and 0.8197 and 0.8242
ODtreated/ODcontrol (HeLa cells; Hela, group 16 (concentration), single experiments): 0.166 and 0.1803 and 0.1758
Inhibitory rate (HeLa cells; Hela, group 32 (concentration), fraction, single experiments): 0.8525 and 0.86 and 0.8737
ODtreated/ODcontrol (HeLa cells; Hela, group 32 (concentration), single experiments): 0.1475 and 0.14 and 0.1263
IC50 (HeLa cells; Hela, one of three experiments, unit inferred, read-out: IC50, single experiment, Hela): 5.87 µM
Inhibitory rate (HeLa cells; Hela, fraction, per experiment): 0.8059 and 0.7883 and 0.7664
ODtreated/ODcontrol (HeLa cells; Hela, fraction, per experiment): 0.1941 and 0.2117 and 0.2336
IC50 (HeLa cells; Homo sapiens, HeLa, 48 h, HeLa, 48 h, MTT, read-out: IC50 HeLa): 5.02 ± 0.94 µM
IC50 (HeLa cells; Homo sapiens, HeLa, one of three experiments, unit inferred, read-out: IC50, single experiment, Hela): 5.16 µM
inhibition at 16 µM (HeLa cells; Homo sapiens, preliminary screening, Hela, 16 μM, 48 h, mean±SD, unit inferred, read-out: Inhibition rate (16μM), 48 h, Hela): 79.4 ± 1.04%
Inhibitory rate (HepG2 cells [2]; [4]): 0.8445 and 0.8592 and 0.8525
ODtreated/ODcontrol (HepG2 cells [2]; [4]): 0.1555 and 0.1408 and 0.1475
inhibition at 4 µM (HepG2 cells [2]; Homo sapiens, HepG2, liver cancer cells, 4 μM, read-out: Inhibition rate on liver cancer cells): ~50%
IC50 (HepG2 cells [2]; Homo sapiens, HepG2, 48 h, MTT): 4.29 ± 0.1 µM
inhibition at 16 µM (HepG2 cells [2]; Homo sapiens, preliminary screening, HepG2, 16 μM, 48 h, mean±SD, unit inferred, read-out: Inhibition rate (16μM), 48 h, HepG2): 85.21 ± 0.73%
Apoptotic morphological changes, DAPI staining (HepG2 cells [3]): cell shrinkage, nuclear condensation, and chromatin fragmentation
